Measurements from patent US12195490B2, “STRAD-binding agents and uses thereof” (The Regents of the University of California, priority 2020, dated 2025).

Tests used:
LKB1 [1] = target: T1, LKB1 (Homo sapiens, UniProt Q15831+Q7RTN6); test: in vitro LKB1 functional activity; format: biochemical; details: APA analogs
T1 sequence (Q15831 1-433): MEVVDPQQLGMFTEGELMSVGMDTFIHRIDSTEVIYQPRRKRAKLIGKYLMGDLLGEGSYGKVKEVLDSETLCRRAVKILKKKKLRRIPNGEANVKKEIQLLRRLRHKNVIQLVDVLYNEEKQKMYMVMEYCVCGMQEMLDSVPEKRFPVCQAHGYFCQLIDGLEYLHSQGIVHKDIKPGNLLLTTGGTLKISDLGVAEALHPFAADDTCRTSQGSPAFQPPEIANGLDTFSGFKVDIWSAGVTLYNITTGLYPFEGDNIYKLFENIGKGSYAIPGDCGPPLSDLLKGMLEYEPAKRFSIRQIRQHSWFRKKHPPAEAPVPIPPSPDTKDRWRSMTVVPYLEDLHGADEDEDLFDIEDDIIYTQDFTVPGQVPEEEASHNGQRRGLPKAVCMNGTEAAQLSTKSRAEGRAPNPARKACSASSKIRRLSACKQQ
T1 sequence (Q7RTN6 1-431): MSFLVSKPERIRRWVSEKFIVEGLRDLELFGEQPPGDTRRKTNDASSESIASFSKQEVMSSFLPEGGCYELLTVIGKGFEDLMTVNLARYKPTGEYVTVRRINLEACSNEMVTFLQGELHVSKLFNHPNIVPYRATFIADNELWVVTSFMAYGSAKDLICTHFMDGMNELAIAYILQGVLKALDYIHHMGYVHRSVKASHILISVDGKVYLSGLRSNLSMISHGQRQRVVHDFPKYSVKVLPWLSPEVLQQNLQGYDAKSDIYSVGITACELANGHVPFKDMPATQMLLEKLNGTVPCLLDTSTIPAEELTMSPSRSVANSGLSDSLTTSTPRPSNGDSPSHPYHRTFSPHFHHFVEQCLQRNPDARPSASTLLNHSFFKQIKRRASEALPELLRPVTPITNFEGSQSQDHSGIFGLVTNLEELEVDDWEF
T1 sequence (Q9Y376 1-341 partner): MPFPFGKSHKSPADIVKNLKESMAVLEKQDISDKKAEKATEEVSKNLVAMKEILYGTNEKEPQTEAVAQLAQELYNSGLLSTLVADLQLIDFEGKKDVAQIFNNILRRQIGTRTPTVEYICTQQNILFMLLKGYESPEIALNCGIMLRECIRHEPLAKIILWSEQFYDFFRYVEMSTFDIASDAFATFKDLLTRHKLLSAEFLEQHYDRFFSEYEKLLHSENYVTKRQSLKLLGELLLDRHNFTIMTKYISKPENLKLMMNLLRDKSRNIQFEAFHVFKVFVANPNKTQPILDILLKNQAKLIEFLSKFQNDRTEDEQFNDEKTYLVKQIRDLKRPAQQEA

[2] = system: most sensitive cancer cell line; test: cell activity: CTG anti-proliferation in most sensitive cancer cell line; format: cell-based; details: APA analogs
LKB1 [3] = target: T1, LKB1; test: LKB1 kinase assay with recombinant LKB1 (LKB1 in vitro activation); format: biochemical
Excerpt: Screening in human cancer cell lines has identified cell lines responsive to LKB1 activation and predictive biomarkers for compound development have been determined. Installation of a novel polar functionality specifically designed to target STRAD's unique phosphate-binding residues led to the identification of compound SU-329 which is currently progressing through efficacy models evaluating tumor growth inhibition. The terms SU-329 and SU20668-0329-01 refer to the same compound.
Small Molecule Activation of the LKB1 Tumor Suppressor. Cancer treatment has been considerably advanced by the relatively recent development of small molecules capable of inhibiting oncogenic kinase signaling, but exogenous enhancement of tumor suppressive signaling remains elusive. Here, we sought to design small molecules capable of activating the tumor suppressor kinase LKB1. Designing compounds capable of increasing kinase activity has been more structurally challenging than those aimed at inhibiting them: apart from the ATP-binding pocket, there is rarely a site that would be conducive to binding a small molecule. Unlike most protein kinases, LKB1 signals as part of an obligate trimer consisting of itself, a scaffolding protein (MO25), and a pseudokinase (STRAD). As part of its mechanism of activation, LKB1 must bind to an ATP-bound STRAD to take on its active kinase conformation. […]

ACHN cell line = test: Drug screen of the SelleckChem kinase inhibitor library with and without SU-329, Cell-Titer Glo after 5 days; format: cell-based; details: kinase inhibitors 200 nM with and without 5 μM SU-329
Procedure: FIG. 8. Drug screen identifies signaling pathways that affect the impact of LKB1 activation. Drug screen of the SelleckChem kinase inhibitor library was performed in the ACHN cell line. Sensitivity to kinase inhibitors used at 200 nM with and without 5 μM of SU-329 was measured after 5 days with Cell-Titer Glo. […] The terms SU-329 and SU20668-0329-01 refer to the same compound.

SMILES: Cc1ccc(-c2cnc(N)c(C(=O)Nc3ccc(S(=O)(=O)NC4COC4)cc3)n2)cc1 [SU20668-0468, 3-amino-N-(4-(N-oxetan-3-ylsulfamoyl)phenyl)-6-p-tolylpyrazine-2-carboxamide]
- LKB1 % Act. Increase (LKB1 [1]): C (C=199-1000%)
- IC50 [2]: < 3000 nM

SMILES: CCOP(C)(=O)CS(=O)(=O)c1ccc(NC(=O)c2nc(-c3ccc(C)cc3)cnc2N)cc1 (stereo not shown) [SU20668-0472, ethyl (4-(3-amino-6-p-tolylpyrazine-2-carboxamido)phenylsulfonyl)methyl(methyl)phosphinate]
- LKB1 % Act. Increase (LKB1 [1]): A (A=>4000%)
- IC50 [2]: < 3000 nM

SMILES: Cc1ccc(-c2cnc(N)c(C(=O)Nc3ccc(S(=O)(=O)CC4COC4)cc3)n2)cc1 [SU20668-0494, 3-amino-N-(4-(oxetan-3-ylmethylsulfonyl)phenyl)-6-p-tolylpyrazine-2-carboxamide]
- LKB1 % Act. Increase (LKB1 [1]): A (A=>4000%)
- IC50 [2]: < 3000 nM

SMILES: CCOP(=O)(CC)CS(=O)(=O)c1ccc(NC(=O)c2nc(-c3ccc(C)cc3)cnc2N)cc1 (stereo not shown) [SU20668-0515, ethyl (4-(3-amino-6-p-tolylpyrazine-2-carboxamido)phenylsulfonyl)methyl(ethyl)phosphinate]
- LKB1 % Act. Increase (LKB1 [1]): B (B=399-2000%)
- IC50 [2]: < 3000 nM

SMILES: CO[P@@](C)(=O)CS(=O)(=O)c1ccc(NC(=O)c2nc(-c3ccc(C)cc3)cnc2N)cc1 [SU20668-0519, (R)-methyl (4-(3-amino-6-p-tolylpyrazine-2-carboxamido)phenylsulfonyl)methyl(methyl)phosphinate]
- LKB1 % Act. Increase (LKB1 [1]): A (A=>4000%)
- IC50 [2]: < 3000 nM

SMILES: CO[P@](C)(=O)CS(=O)(=O)c1ccc(NC(=O)c2nc(-c3ccc(C)cc3)cnc2N)cc1 [SU20668-0520, (S)-methyl (4-(3-amino-6-p-tolylpyrazine-2-carboxamido)phenylsulfonyl)methyl(methyl)phosphinate]
- LKB1 % Act. Increase (LKB1 [1]): A (A=>4000%)
- IC50 [2]: < 3000 nM

SMILES: CCO[P@](=O)(CC)CS(=O)(=O)c1ccc(NC(=O)c2nc(-c3ccc(C)cc3)cnc2N)cc1 [SU20668-0521, (R)-ethyl (4-(3-amino-6-p-tolylpyrazine-2-carboxamido)phenylsulfonyl)methyl(ethyl)phosphinate]
- LKB1 % Act. Increase (LKB1 [1]): A (A=>4000%)
- IC50 [2]: < 3000 nM

SMILES: CCO[P@@](=O)(CC)CS(=O)(=O)c1ccc(NC(=O)c2nc(-c3ccc(C)cc3)cnc2N)cc1 [SU20668-0522, (S)-ethyl (4-(3-amino-6-p-tolylpyrazine-2-carboxamido)phenylsulfonyl)methyl(ethyl)phosphinate]
- LKB1 % Act. Increase (LKB1 [1]): B (B=399-2000%)
- IC50 [2]: < 3000 nM

SMILES: COP(=O)(CS(=O)(=O)c1ccc(NC(=O)c2nc(-c3ccc(C)cc3)cnc2N)cc1)OC [SU-329]
- LKB1 in vitro activation (LKB1 [3]): Single digit micro-molar
- response of LKB1 stimulation under inhibition of GSK-3 (ACHN cell line): reduced the response of LKB1 stimulation
- response of LKB1 stimulation under inhibition of mTOR and components of the PI3K (ACHN cell line): attenuated the response of LKB1 stimulation
